Assay results as given in publication PMC6150792 (Pain, 2018).
Values joined by “and” are separate entries in the source; they are usually repeats but may differ in a detail not shown here. Equal entries are not always repeated. Where two headings read alike, the source gives them in different places. Ends that are not written are not given here.

How the values were obtained:
[1] = tested on: presynaptic N-type voltage-gated calcium channels; conditions: ref [66]; cited from earlier work
[2] = tested on: model of postoperative, neuropathic, pain, and cephalic pain; conditions: ref [63], [65]; cited from earlier work
[3] = tested on: CRMP2 residue S522 phosphorylation by Cdk5; conditions: ref [66]; cited from earlier work
[4] = tested on: cytosolic Na+ in cultured DRG neurons; test: Sodium fluorescence imaging; type: cell-based, rat
SUMOylation = conditions: cited from earlier work
humans = conditions: current clinically used medication; no reference given; cited from earlier work
NaV1.7 = conditions: CAD cells; ref [20]; [21]; cited from earlier work
[5] = target: recombinant human CRMP2-His (collapsin response mediator protein 2) (human) (UniProt Q16555); test: MST
[6] = target: recombinant human CRMP2-His (collapsin response mediator protein 2) (human) (UniProt Q16555); test: MST; remark: listed apart in the source
[7] = target: recombinant human CRMP2-His (collapsin response mediator protein 2) (human) (UniProt Q16555); test: MST; remark: listed apart in the source
[8] = target: recombinant human CRMP2-His (collapsin response mediator protein 2) (human) (UniProt Q16555); test: AlphaScreen or HTRF
[9] = target: recombinant human CRMP2-His (collapsin response mediator protein 2) (human) (UniProt Q16555); test: MST; remark: listed apart in the source
CRMP2 = test: Microscale thermophoresis; design: species or system human; conditions: read-out: apparent Kd, Ubc9 binding to CRMP2; MST; Ubc9-GST 0.003-100 μM; NT-647 labeled CRMP2; PBS-T (0.05% Tween-20), room temperature, 10 min; no cofactor; mean ± SEM, n=3
Ubc9-CRMP2 interaction = Ubc9-CRMP2 interaction (Homo sapiens, UniProt P63279); test: ALPHA assay, Ubc9-GST binding to CRMP2-His and its disruption; conditions: binding stable over at least this window
Ubc9 = Ubc9 (Homo sapiens, UniProt P63279); test: MST, t-CSM binding to NT-647 labeled Ubc9
SNI rats = conditions: rat, in vivo

For `COC[C@H](NC(C)=O)C(=O)NCc1ccccc1` [(S)-lacosamide], the calcium influx [1] is listed as “decrease of calcium influx”, the “thermal hypersensitivity and mechanical allodynia” value [2] is listed as “mitigation of thermal hypersensitivity and mechanical allodynia” and the “CRMP2 phosphorylation by Cdk5” value [3] is listed as “inhibiting phosphorylation by Cdk5”.

For `C[C@@H]1O[C@@H](O[C@H]2C[C@@H](O)[C@]3(CO)[C@H]4[C@H](O)C[C@]5(C)[C@@H](C6=CC(=O)OC6)CC[C@]5(O)[C@@H]4CC[C@]3(O)C2)[C@H](O)[C@H](O)[C@H]1O` [Ouabain], the “effect on [Na+]c of ouabain alone” value ([4]; ouabain 1 mM alone, SBFI) was “increase in [Na^+]c”.

In the case of `NC1=N[C@H](O)[C@H]2[C@H]3O[C@]4(O)O[C@@H]([C@@H](O)[C@@]2(N1)[C@@H]4O)[C@]3(O)CO` [TTX, tetrodotoxin], the “ouabain-induced increase in [Na+]c” value [4] is reported as “inhibited”.

In the case of `C[C@H]1Oc2cc3c(-c4c(O)cc(O)c5c(O)c6c(cc45)O[C@H](C)[C@@H](C)C6=O)c(O)cc(O)c3c(O)c2C(=O)[C@@H]1C` [chaetochromin A], the “inhibition of SUMOylation” value (SUMOylation; ref [35]) is listed as “inhibitors of SUMOylation”.

For `NCC1(CC(=O)O)CCCCC1` [gabapentin], the “ability to remain on the rotating rod” value (naïve male SD rats; gabapentin, naïve rats, data not shown) is given as “decrease in the ability of naïve rats to remain on the rotating rod” and the sedation in humans (humans) is given as “severe sedation in humans”.

In the case of `C[C@@H]1O[C@@H](O[C@H]2[C@H](O)C[C@H](c3ccc4c(c3O)C(=O)C3=C(C4=O)[C@@]4(O[C@H]5CC[C@H](O)[C@H](C)O5)C(=O)C[C@](C)(O)C[C@@]4(O)C=C3)O[C@@H]2C)CC[C@@H]1O[C@H]1C[C@@H](O)[C@H](O)[C@@H](C)O1` [kerriamycin B], the “inhibition of SUMOylation” value (SUMOylation; ref [28]) is given as “inhibitors of SUMOylation”.

For `COC(=CC(=O)O)C1c2cc3ccc(-c4ccc5cc6c(c(O)c5c4O)C(=O)CC(C)(O)C6C(=CC(=O)O)OC)c(O)c3c(O)c2C(=O)CC1(C)O` (stereo not shown) [spectomycin B1], the “inhibition of SUMOylation” value (SUMOylation; ref [35]) is given as “inhibitors of SUMOylation”.

For `COC1=C(c2c(OC)cc3cc4c(c(O)c3c2O)C(=O)O[C@H](C)C4)C(=O)c2c(cc3c(c2O)C(=O)O[C@H](C)C3)C1=O` [viomellein], the “inhibition of SUMOylation” value (SUMOylation; ref [35]) is listed as “inhibitors of SUMOylation”.

For Huwentoxin-IV, the “contribution of NaV1.7 to total sodium currents by isoform-specific blockade” value (NaV1.7) is given as ~ 80%.

“Ubc9-GST fusion protein (E2 SUMO-conjugating enzyme Ubc9) (from UniProt P63279 1-158)” gave a Kd [5] of 7.6 µM, a Kd [6] of 26 µM and a Kd [7] of 25.5 µM. The Kd [8] was 0.8 µM, the Kd [9] was 12.2 µM and the other [9] was 80 µM and 137 µM.

For “Ubc9: E2 SUMO-conjugating enzyme, recombinant Ubc9-GST fusion protein”, the Kd (CRMP2) was 12.2 ± 2.7 µM and the “stability of Ubc9-CRMP2 binding signal” value (Ubc9-CRMP2 interaction) was at least 18 h.

For YGRKKRRQRRRGKMDENQ [t-CSM], the Kd (Ubc9) was 0.4 ± 0.1 µM, the “motor impairment or sedation” value (naïve male SD rats; rat, in vivo) was “no motor impairment or sedation” and the time on rotarod (naïve male SD rats; rat, in vivo) was 180 ± 0 s. The “motor performance in SNI rats” value (SNI rats) was “did not affect motor performance at any time point”.

For ginkgolic acid, the “inhibition of SUMOylation” value (SUMOylation; ref [27]) is listed as “inhibitors of SUMOylation”.
